Experimental data taken from PubChem BioAssay (NCI).
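How tested: cells in 96-well plates exposed to compound for 48 hours at five concentrations. GI50 is the concentration that inhibits growth by half. TGI: concentration producing complete growth inhibition.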

Experiments:
Experiment in all cases: growth of human tumour cells (NCI), 48 h; in the data active = GI50 below about 0.43 µM; inactive = the rest
COLO 205 colon = system: COLO 205 colon
SR leukemia = system: SR leukemia
UACC-62 melanoma = system: UACC-62 melanoma
OVCAR-8 ovarian = system: OVCAR-8 ovarian
HOP-62 NSCLC = system: HOP-62 NSCLC
NCI-H23 lung = system: NCI-H23 lung
HS 578T breast = system: HS 578T breast
SW-620 colon = system: SW-620 colon
HCC-2998 colon = system: HCC-2998 colon
PC-3 prostate = system: PC-3 prostate

O=C1N=C2SC(=S)NC(=S)N2NC12c1ccccc1-c1ccccc12
> 10 µM: TGI (COLO 205 colon) | TGI (SR leukemia) | TGI (UACC-62 melanoma) | TGI (OVCAR-8 ovarian) | TGI (HOP-62 NSCLC) | TGI (NCI-H23 lung) | TGI (HS 578T breast) | TGI (SW-620 colon) | TGI (HCC-2998 colon)

Nc1nc(Cl)cc(NCC2(O)CC2)n1
> 100 µM: TGI (PC-3 prostate) | TGI (SR leukemia) | TGI (UACC-62 melanoma) | TGI (OVCAR-8 ovarian) | TGI (HOP-62 NSCLC) | TGI (NCI-H23 lung) | TGI (HS 578T breast) | TGI (SW-620 colon) | TGI (HCC-2998 colon)

CC[C@H](Nc1nc(C)nc(N)c1C#N)c1nc2cccc(NCc3ccc(C(=O)NO)cc3)c2c(=O)n1-c1ccccc1
3.8 µM: TGI (COLO 205 colon)
3.28 µM: TGI (HCC-2998 colon)
4.05 µM: TGI (NCI-H23 lung)
8.36 µM: TGI (HS 578T breast)
4.47 µM: TGI (SW-620 colon)
3.09 µM: TGI (HOP-62 NSCLC)
3.71 µM: TGI (OVCAR-8 ovarian)
inactive: GI50 (COLO 205 colon) 1.74 µM | GI50 (PC-3 prostate) 1.47 µM | GI50 (UACC-62 melanoma) 1.55 µM | GI50 (OVCAR-8 ovarian) 1.55 µM | GI50 (HOP-62 NSCLC) 1.49 µM | GI50 (NCI-H23 lung) 1.83 µM | GI50 (HS 578T breast) 2.45 µM | GI50 (SW-620 colon) 1.74 µM | GI50 (HCC-2998 colon) 1.67 µM
3.17 µM: TGI (UACC-62 melanoma)
4.04 µM: TGI (PC-3 prostate)

N#C/C(=C/n1c(=S)[nH]c2ccc([N+](=O)[O-])cc21)C(N)=O
> 100 µM: TGI (COLO 205 colon) | TGI (PC-3 prostate) | TGI (SR leukemia) | TGI (UACC-62 melanoma) | TGI (OVCAR-8 ovarian) | TGI (HOP-62 NSCLC) | TGI (NCI-H23 lung) | TGI (HS 578T breast) | TGI (SW-620 colon)

CC(C)N1CC2CC(CN(C(=O)c3ccccc3)C2)C1
> 100 µM: TGI (COLO 205 colon) | TGI (UACC-62 melanoma) | TGI (OVCAR-8 ovarian) | TGI (HOP-62 NSCLC) | TGI (NCI-H23 lung) | TGI (SW-620 colon) | TGI (HCC-2998 colon)

C=C1N(C=O)C(C)(C)N(O)C1(C)C
> 100 µM: TGI (COLO 205 colon) | TGI (PC-3 prostate) | TGI (UACC-62 melanoma) | TGI (OVCAR-8 ovarian) | TGI (HOP-62 NSCLC) | TGI (NCI-H23 lung) | TGI (HS 578T breast) | TGI (SW-620 colon) | TGI (HCC-2998 colon)

CCP(=O)(OC)C1=CCN(C(=O)OCC[Si](C)(C)C)CC1 (stereo not drawn)
> 100 µM: TGI (COLO 205 colon) | TGI (PC-3 prostate) | TGI (UACC-62 melanoma) | TGI (OVCAR-8 ovarian) | TGI (HOP-62 NSCLC) | TGI (NCI-H23 lung) | TGI (HS 578T breast) | TGI (SW-620 colon) | TGI (HCC-2998 colon)

COc1ccc2nc(/C(N)=C\C#N)ccc2c1
> 100 µM: TGI (COLO 205 colon) | TGI (PC-3 prostate) | TGI (SR leukemia) | TGI (UACC-62 melanoma) | TGI (OVCAR-8 ovarian) | TGI (HOP-62 NSCLC) | TGI (NCI-H23 lung) | TGI (HS 578T breast) | TGI (SW-620 colon)

COC(=O)C1=C(C(=O)OC)SC(=CC#CC=C2SC(C(=O)OC)=C(C(=O)OC)S2)S1
20.8 µM: TGI (OVCAR-8 ovarian)
17.8 µM: TGI (NCI-H23 lung)
12.2 µM: TGI (HOP-62 NSCLC)
29.1 µM: TGI (UACC-62 melanoma)
> 54.9 µM: TGI (COLO 205 colon)
> 52 µM: TGI (SW-620 colon)
> 100 µM: TGI (SR leukemia) | TGI (HCC-2998 colon)

CSc1cc(=O)n2c3ccccc3c3ccnc1c32
> 100 µM: TGI (COLO 205 colon) | TGI (UACC-62 melanoma) | TGI (OVCAR-8 ovarian) | TGI (HOP-62 NSCLC) | TGI (NCI-H23 lung) | TGI (SW-620 colon) | TGI (HCC-2998 colon)

COc1cc(C(c2c(O)c3ccccc3oc2=O)c2c(O)c3ccccc3oc2=O)cc(Br)c1O
35 µM: TGI (PC-3 prostate)
58.3 µM: TGI (SR leukemia)
45.8 µM: TGI (HOP-62 NSCLC)
32 µM: TGI (COLO 205 colon)
42.7 µM: TGI (NCI-H23 lung)
32.3 µM: TGI (OVCAR-8 ovarian)
29.6 µM: TGI (UACC-62 melanoma)
48.4 µM: TGI (SW-620 colon)
51.8 µM: TGI (HS 578T breast)
